Test results from the supplement of paper PMC12137928.
Counter-ions that a name gives are not always drawn.

Test system: HCT116
Conditions: 72 h
Method in brief: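 Each well of the 1536-well plates received 250 HCT116 cells, which attached over 5 h. Luminescence was measured with CellTiter-Glo, scaled with vehicle as 0% and positive control as -100%, and pattern-corrected. A four-parameter Hill fit yielded IC50 and maximal efficacy.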

IC50 cell viability (ICRF193 0 nM) [µM] | IC50 cell viability (ICRF193 200 nM) [µM] | Compound
> 45.8 | > 45.8 | CC(C)NC[C@@H](O)COc1cccc2ccccc12 [Dexpropranolol]
> 45.8 | > 45.8 | C[C@@H](CN1CC(=O)NC(=O)C1)N1CC(=O)NC(=O)C1 [Dexrazoxane hydrochloride]
> 45.8 | > 45.8 | OC[C@H]1OC(O)[C@H](O)[C@@H](O)[C@@H]1O (some centres undefined) [Dextrose]
> 45.8 | > 45.8 | CCN(CC)CCOc1ccc2nc(N(C)C)sc2c1 [Diamthazole]
> 45.8 | > 45.8 | CC(=O)Nc1c(I)c(NC(C)=O)c(I)c(C(=O)O)c1I [Diatrizoic acid dihydrate]
> 45.8 | > 45.8 | CC1=Nc2ccc(Cl)cc2S(=O)(=O)N1 [Diazoxide]
> 45.8 | > 45.8 | CN(C)CCN1C(=O)c2ccccc2N(C)c2ccccc21 [Dibenzepin hydrochloride]
> 45.8 | > 45.8 | O[C@@H]([C@H](O)[C@H](O)CBr)[C@H](O)CBr [Dibromomannitol]
> 45.8 | > 45.8 | CCCCOc1cc(C(=O)NCCN(CC)CC)c2ccccc2n1 [Dibucaine]
> 45.8 | > 45.8 | CCOC(=O)OCC/C(SC(=O)OCC)=C(\C)N(C=O)Cc1cnc(C)nc1N [Dicethiamine hydrochloride]
> 45.8 | > 45.8 | O=C(O)Cc1ccccc1Nc1c(Cl)cccc1Cl [Diclofenac sodium]
> 45.8 | > 45.8 | NS(=O)(=O)c1cc(Cl)c(Cl)c(S(N)(=O)=O)c1 [Diclofenamide]
> 45.8 | > 45.8 | Cc1onc(-c2c(Cl)cccc2Cl)c1C(=O)N[C@@H]1C(=O)N2[C@@H]1SC(C)(C)[C@@H]2C(=O)O [Dicloxacillin sodium salt monohydrate]
> 45.8 | > 45.8 | O=c1oc2ccccc2c(O)c1Cc1c(O)c2ccccc2oc1=O [Dicumarol]
> 45.8 | > 45.8 | CCN(CC)CCOC(=O)C1(C2CCCCC2)CCCCC1 [Dicyclomine]
> 45.8 | > 45.8 | C[C@]12CCC3=C4CCC(=O)C=C4CC[C@H]3[C@@H]1CC[C@@]2(O)CC#N [Dienogest]
> 45.8 | > 45.8 | CC(=O)OCC(=O)[C@@]1(OC(C)=O)[C@@H](C)C[C@H]2[C@@H]3C[C@H](F)C4=CC(=O)C=C[C@]4(C)[C@@]3(F)[C@@H](O)C[C@@]21C [Diflorasone diacetate]
> 45.8 | > 45.8 | CN1CCN(c2cc3c(cc2F)c(=O)c(C(=O)O)cn3-c2ccc(F)cc2)CC1 [Difloxacin hydrochloride]
> 45.8 | > 45.8 | O=C(O)c1cc(-c2ccc(F)cc2F)ccc1O [Diflunisal]
> 45.8 | > 45.8 | CCCC(=O)O[C@]1(C(=O)COC(C)=O)CC[C@H]2[C@@H]3C[C@H](F)C4=CC(=O)C=C[C@]4(C)[C@@]3(F)[C@@H](O)C[C@@]21C [Difluprednate]
> 45.8 | > 45.8 | CC(C)[C@@H](C)/C=C/[C@@H](C)[C@H]1CC[C@H]2/C(=C/C=C3\C[C@@H](O)CC[C@@H]3C)CCC[C@]12C [Dihydrotachysterol]
> 45.8 | > 45.8 | CN(C(=O)C(Cl)Cl)c1ccc(OC(=O)c2ccco2)cc1 [Diloxanide furoate]
> 45.8 | > 45.8 | COc1ccc([C@@H]2Sc3ccccc3N(CCN(C)C)C(=O)[C@@H]2OC(C)=O)cc1 [Diltiazem]
> 45.8 | > 45.8 | COc1ccc2c(=O)c(C)c(-c3ccccc3)oc2c1CN(C)C [Dimefline hydrochloride]

IC50 cell viability (ICRF193 0 nM) [µM] | IC50 cell viability (ICRF193 200 nM) [µM] | Compound
> 45.8 | > 45.8 | CCCCc1cc2ccccc2c(OCCN(C)C)n1 [Dimethisoquin hydrochloride]
> 45.8 | > 45.8 | COC(=O)/C=C\C(=O)OC [Dimethyl maleate]
> 45.8 | > 45.8 | C[N+](C)(CCOc1ccccc1)Cc1cccs1 [Dimethyl(2-phenoxyethyl)-2-thenylammonium iodide]
> 45.8 | > 45.8 | CCCCN(CCN(CCCC)C(=O)N1CCOCC1)C(=O)N1CCOCC1 [Dimorpholamine]
> 45.8 | > 45.8 | O=C(Nc1ccccc1)OCC(CN1CCCCC1)OC(=O)Nc1ccccc1 (centres undefined) [Diperodon hydrochloride]
> 45.8 | > 45.8 | C[N+]1(C)CCC(=C(c2ccccc2)c2ccccc2)CC1 [Diphemanil methylsulfate]
> 45.8 | > 45.8 | OC(CCCN1CCCCC1)(c1ccccc1)c1ccccc1 [Diphenidol]
> 45.8 | > 45.8 | CN1CCC(OC(c2ccccc2)c2ccccc2)CC1 [Diphenylpyraline hydrochloride]
> 45.8 | > 45.8 | CNCC(O)c1ccc(OC(=O)C(C)(C)C)c(OC(=O)C(C)(C)C)c1 (centres undefined) [Dipivefrin hydrochloride]
> 45.8 | > 45.8 | CC[N+](CC)(CC)CCOC(=O)C(C1CCCC1)C1CCCC1 [Diponium bromide]
> 45.8 | > 45.8 | OCCN(CCO)c1nc(N2CCCCC2)c2nc(N(CCO)CCO)nc(N3CCCCC3)c2n1 [Dipyridamole]
> 45.8 | > 45.8 | Cc1c(N(C)CS(=O)(=O)O)c(=O)n(-c2ccccc2)n1C [Dipyrone]
> 45.8 | > 45.8 | CC[C@H]1OC(=O)[C@H](C)[C@@H](O[C@H]2C[C@@](C)(OC)[C@@H](O)[C@H](C)O2)[C@H](C)[C@@H](O[C@@H]2O[C@H](C)C[C@H](N(C)C)[C@H]2O)[C@](C)(O)C[C@@H](C)[C@@H]2N[C@@H](COCCOC)O[C@H]([C@H]2C)[C@]1(C)O [Dirithromycin]
> 45.8 | > 45.8 | O=C([O-])CC(O)C(=O)[O-].[Na+].[Na+] (centres undefined) [Disodium 2-hydroxybutanedioate]
> 45.8 | > 45.8 | CN(CCCCCCN(C)C(=O)Oc1ccc[n+](C)c1)C(=O)Oc1ccc[n+](C)c1 [Distigmine Bromide]
> 45.8 | > 45.8 | CCN(CC)C(=S)SSC(=S)N(CC)CC [Disulfiram]
> 45.8 | > 45.8 | O=S(=O)(O)c1cc(O)ccc1O [Dobesilate Calcium]
> 45.8 | > 45.8 | CCOC(=O)Oc1ccc(CCNC(=O)[C@H](CCSC)NC(C)=O)cc1OC(=O)OCC [Docarpamine]
> 45.8 | > 45.8 | CCCCCCCCCCCCCCCCCCCCCCO [Docosanol]
> 45.8 | > 45.8 | CN(CCOc1ccc(NS(C)(=O)=O)cc1)CCc1ccc(NS(C)(=O)=O)cc1 [Dofetilide]
> 45.8 | > 45.8 | O=C(O[C@@H]1C[C@@H]2C[C@H]3C[C@H](C1)N2CC3=O)c1c[nH]c2ccccc12 [Dolasetron mesylate hydrate]
> 45.8 | > 45.8 | COc1cc2c(cc1OC)C(=O)C(CC1CCN(Cc3ccccc3)CC1)C2 (centres undefined) [Donepezil hydrochloride]
> 45.8 | > 45.8 | NCCc1ccc(O)c(O)c1 [Dopamine hydrochloride]
> 45.8 | > 45.8 | O=[N+]([O-])c1nccn1COC(CO)C(O)CO (centres undefined) [Doranidazole]

Compound | IC50 cell viability (ICRF193 0 nM) [µM] | IC50 cell viability (ICRF193 200 nM) [µM]
c1ccc2c(c1)sc1ccccc12 [Dibenzothiophene] | > 45.8 | > 45.8
CCCCCCCCCCCC(=O)[O][Sn]([CH2]CCC)([CH2]CCC)[O]C(=O)CCCCCCCCCCC [Dibutyltin dilaurate] | > 45.8 | > 45.8
NCCN.[Cl][Pt][Cl] [Dichloro(ethylenediamine)platinum(II)] | > 45.8 | > 45.8
COP(=O)(OC)OC=C(Cl)Cl [Dichlorvos] | > 45.8 | > 45.8
C1CCC(NC2CCCCC2)CC1 [Dicyclohexylamine] | > 45.8 | > 45.8
S=C(SSC(=S)N1CCCCC1)N1CCCCC1 [Dicyclopentamethylenethiuram disulfide] | > 45.8 | > 45.8
CCOC(=O)c1ccccc1C(=O)OCC [Diethyl phthalate] | > 45.8 | > 45.8
CC(C)C[C@H]1C(=O)N2CCC[C@H]2[C@]2(O)O[C@](NC(=O)[C@@H]3C[C@@H]4c5cccc6[nH]cc(c56)C[C@H]4N(C)C3)(C(C)C)C(=O)N12 [Dihydroergocriptine] | > 45.8 | > 45.8
CN1C[C@H](C(=O)N[C@]2(C)O[C@@]3(O)[C@@H]4CCCN4C(=O)[C@H](Cc4ccccc4)N3C2=O)C[C@@H]2c3cccc4[nH]cc(c34)C[C@H]21 [Dihydroergotamine] | > 45.8 | > 45.8
CC(C)NC(C)C [Diisopropylamine] | > 45.8 | > 45.8
Cc1ccc2c(c1)[C@]13CCCC[C@@H]1[C@H](C2)N(C)CC3 [Dimemorfan phosphate] | > 45.8 | > 45.8
CC#C[C@]1(O)CC[C@H]2[C@@H]3C[C@H](C)C4=CC(=O)CC[C@]4(C)[C@H]3CC[C@@]21C [Dimethisteron] | > 45.8 | > 45.8
CC(C)N(CCC(C(N)=O)(c1ccccc1)c1ccccn1)C(C)C (centres undefined) [Disopyramide] | > 45.8 | > 45.8
O=c1[nH]c2ccccc2n1CCCN1CCC(n2c(=O)[nH]c3cc(Cl)ccc32)CC1 [Domperidone] | > 45.8 | > 45.8
